According to patent publication US10947196B2, “Beta adrenergic agonist and methods of using the same” (CURASEN THERAPEUTICS, INC., priority 2019, dated 2021):

Each compound was assayed against β1-adrenergic receptor (Homo sapiens (Human), UniProt P08588) (assay: cAMP Gs dynamic HTRF assay, β1 expressing CHO cells). Details: B1-AR; CHO-K1 (HitHunter).
Format: cell-based
Protocol: (§1) cAMP homogeneous time-resolved fluorescence (HTRF). Compound efficacy was determined using the cAMP Gs dynamic HTRF assay (Cisbio, catalog #62AM4PEC) largely following the manufacturer's instructions, also detailed below.
(§2) Compound preparation. […] Standard serial dilution curves were 10-point, 5-fold dilutions starting from a highest concentration of 10 μM. […] Assay plates were centrifuged at 500×g for 10 seconds. Compounds and IBMX were prepared at 2× final dose to compensate for addition of cells.
(§3) Cell preparation. 1× stimulation buffer, washing PBS (Dulbecco's phosphate-buffered saline, −Mg −Ca; Caisson Labs, catalog #PBL01), assay PBS (Dulbecco's phosphate-buffered saline, +Mg, +Ca; Caisson Labs, catalog #PBL02) and Versene (0.02% EDTA disodium salt solution in PBS without calcium or magnesium; Caisson Labs, catalog #EDL01) were pre-warmed to 37° C. Cells expressing beta-adrenergic receptor were washed in washing PBS to remove growth medium and then released from the surface by incubating with Versene for 5-10 minutes at 37° C. Cells were harvested using assay PBS, counted manually by hemocytometer or by an automated cell counter, pelleted by centrifugation (200×g, 5 minutes) and resuspended in 37° C. 1× stimulation buffer to a final density of 1.5×10^6 cells/mL. 5 μL of the suspended cell solution (7500 cell total) were added to all wells of the 384 well assay plate, the assay plate was covered with an Axygen® plate seal (Corning PCR-SP) and incubated in a humidified 37° C. environment supplemented with 5% CO2 for 30 minutes.
(§4) HTRF reagent addition, reading and data analysis. After 30 minutes of cell stimulation with test compound, the assay plates were centrifuged at 500×g for 10 seconds, and incubation was stopped with the addition of 5 μL cAMP-D2 acceptor, diluted 1:21 in detection and lysis buffer 2 (Cisbio 62CL2FDF) was added to all cells. Subsequently, 5 μL Anti-cAMP-Eu Donor, diluted 1:21 in detection and lysis buffer 2, was added to cells. Plates were sealed and reactions gently ‘vortexed’ at 900 rpm on a Heidolph Titramax 1000 for at least 30 minutes at room temperature. Plates were centrifuged again at 500×g for 10 seconds, and HTRF was measured using a Tecan Spark plate reader at 50 flashes per well. […] Potency estimates (EC50) were derived from the four-parameter nonlinear regression of the concentration-effect curve and an estimate of relative efficacy was determined by comparing the magnitude of the test compound HTRF signal window (min−max dose) with the signal window of the full agonist control, isoproterenol.

β1-adrenergic receptor, sequence (P08588 whole entry, species assumed): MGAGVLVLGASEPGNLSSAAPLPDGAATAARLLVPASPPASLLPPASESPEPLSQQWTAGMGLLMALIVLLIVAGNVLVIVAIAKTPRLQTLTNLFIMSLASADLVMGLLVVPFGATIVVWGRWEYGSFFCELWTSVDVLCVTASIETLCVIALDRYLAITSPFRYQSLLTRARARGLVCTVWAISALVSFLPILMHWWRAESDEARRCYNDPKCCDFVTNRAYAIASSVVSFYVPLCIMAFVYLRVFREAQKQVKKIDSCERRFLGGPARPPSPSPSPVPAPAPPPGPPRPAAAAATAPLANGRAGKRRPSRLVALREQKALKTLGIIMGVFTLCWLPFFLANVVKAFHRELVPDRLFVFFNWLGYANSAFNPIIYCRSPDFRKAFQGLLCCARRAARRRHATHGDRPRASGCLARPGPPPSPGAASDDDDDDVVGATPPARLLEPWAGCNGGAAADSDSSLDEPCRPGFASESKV

SMILES	Average pEC50 [Receptor subtype: B1-AR; Cell type: CHO-K1 (HitHunter)]
CN(C)C(=O)c1cccc([C@@H](O)CNC(C)(C)C)n1 [Compound 03-7]	D (D < 6)
CC(C)(C)NC[C@H](O)c1cccc(C(N)=O)n1 [Compound 03-17]	D (D < 6)
CC(C)(C)NC[C@H](O)c1cccc(-c2nnn[nH]2)n1 [Compound 03-18]	D (D < 6)
O[C@@H](CNC1CCOCC1)c1cccc(C(F)(F)F)n1 [Compound 03-25]	D (D < 6)
O[C@H](CNC1CCC1)c1cccc(C(F)(F)F)n1 [Compound 03-34]	D (D < 6)
CC(C)(C)NC[C@H](O)c1cccc(-c2ccc(Cl)cc2)n1 [Compound 03-119]	C (C = <7-6)
CC(C)(C)NC[C@@H](O)c1cccc(-c2cccc(F)c2)n1 [Compound 03-132]	D (D < 6)
CN1CCN(c2cccc([C@@H](O)CNC(C)(C)C)n2)CC1 [Compound 03-139]	D (D < 6)

Same assay, conditions: B1-AR; CHO-K1 (HitHunter); read-out: Average pEC50 [Receptor subtype: B1-AR; Cell type: CHO-K1 (HitHunter)] (converted)

SMILES	EC50
CC1(NC[C@@H](O)c2cccc(C(F)(F)F)n2)CCC1 [Compound 03-12]	> 1000 nM
CC1(NC[C@@H](O)c2cccc(C(F)(F)F)n2)CC1 [Compound 03-13]	> 1000 nM
COc1ccc(C[C@@H](C)NC[C@@H](O)c2cccc(C(F)(F)F)n2)cc1 [Compound 03-16]	100 to 1000 nM
Cc1cc([C@H](O)CNC(C)(C)C)nc(C(F)(F)F)c1 [Compound 03-20]	> 1000 nM
O[C@H](CNC1Cc2ccccc2C1)c1cccc(C(F)(F)F)n1 [Compound 03-22]	> 1000 nM
CC1(NC[C@H](O)c2cccc(C(F)(F)F)n2)CCOCC1 [Compound 03-23]	100 to 1000 nM
CC(C)(C)NC[C@H](O)c1cccc(-c2ccccc2)n1 [Compound 03-28]	10 to 100 nM
CC(C)(C)NC[C@H](O)c1ccc(C#N)c(C(F)(F)F)n1 [Compound 03-30]	100 to 1000 nM
CC(C)(C)NC[C@H](O)c1cccc(Br)n1 [Compound 03-32]	< 10 nM
CC(C)NC[C@@H](O)c1cccc(C(F)(F)F)n1 [Compound 03-36]	> 1000 nM
CC(C)(C)NC[C@@H](O)c1cccc(C(F)(F)F)n1 [Compound 03-43]	> 1000 nM
Cc1cccc([C@H](O)CNC(C)(C)C)n1 [Compound 03-47]	> 1000 nM
CC(C)(C)NC[C@H](O)c1cc(C(F)(F)F)cnc1C1CCCC1 [Compound 03-78]	< 10 nM
CC(C)(C)NC[C@@H](O)c1cccc(N2CCCCC2)n1 [Compound 03-138]	> 1000 nM
CC(C)(C)NC[C@@H](O)c1cccc(-c2ccc(F)cc2)n1 [Compound 03-146]	100 to 1000 nM
Cc1ccccc1-c1cccc([C@H](O)CNC(C)(C)C)n1 [Compound 03-150]	> 1000 nM
CCN(CC)c1cccc([C@@H](O)CNC(C)(C)C)n1 [Compound 03-159]	10 to 100 nM

Same assay, conditions: B1-AR; CHO-K cells; read-out: Average EC50 [Receptor subtype: B1-AR; Cell type: CHO-K]

SMILES	EC50
CN(C)C(=O)c1cccc([C@@H](O)CNC(C)(C)C)n1 [Compound 03-7]	> 1000 nM
CC1(NC[C@@H](O)c2cccc(C(F)(F)F)n2)CCC1 [Compound 03-12]	> 1000 nM
CC1(NC[C@@H](O)c2cccc(C(F)(F)F)n2)CC1 [Compound 03-13]	> 1000 nM
COc1ccc(C[C@@H](C)NC[C@@H](O)c2cccc(C(F)(F)F)n2)cc1 [Compound 03-16]	100 to 1000 nM
CC(C)(C)NC[C@H](O)c1cccc(C(N)=O)n1 [Compound 03-17]	> 1000 nM
CC(C)(C)NC[C@H](O)c1cccc(-c2nnn[nH]2)n1 [Compound 03-18]	> 1000 nM
Cc1cc([C@H](O)CNC(C)(C)C)nc(C(F)(F)F)c1 [Compound 03-20]	> 1000 nM
O[C@H](CNC1Cc2ccccc2C1)c1cccc(C(F)(F)F)n1 [Compound 03-22]	> 1000 nM
CC1(NC[C@H](O)c2cccc(C(F)(F)F)n2)CCOCC1 [Compound 03-23]	100 to 1000 nM
O[C@@H](CNC1CCOCC1)c1cccc(C(F)(F)F)n1 [Compound 03-25]	> 1000 nM
CC(C)(C)NC[C@H](O)c1cccc(-c2ccccc2)n1 [Compound 03-28]	10 to 100 nM
CC(C)(C)NC[C@H](O)c1ccc(C#N)c(C(F)(F)F)n1 [Compound 03-30]	100 to 1000 nM
CC(C)(C)NC[C@H](O)c1cccc(Br)n1 [Compound 03-32]	< 10 nM
O[C@H](CNC1CCC1)c1cccc(C(F)(F)F)n1 [Compound 03-34]	> 1000 nM
CC(C)NC[C@@H](O)c1cccc(C(F)(F)F)n1 [Compound 03-36]	> 1000 nM
CC(C)(C)NC[C@@H](O)c1cccc(C(F)(F)F)n1 [Compound 03-43]	> 1000 nM
Cc1cccc([C@H](O)CNC(C)(C)C)n1 [Compound 03-47]	> 1000 nM
CC(C)(C)NC[C@H](O)c1cccc(-c2ccc(Cl)cc2)n1 [Compound 03-119]	100 to 1000 nM
CC(C)(C)NC[C@@H](O)c1cccc(-c2cccc(F)c2)n1 [Compound 03-132]	> 1000 nM
CC(C)(C)NC[C@@H](O)c1cccc(N2CCCCC2)n1 [Compound 03-138]	> 1000 nM
CN1CCN(c2cccc([C@@H](O)CNC(C)(C)C)n2)CC1 [Compound 03-139]	> 1000 nM
CC(C)(C)NC[C@@H](O)c1cccc(-c2ccc(F)cc2)n1 [Compound 03-146]	100 to 1000 nM
Cc1ccccc1-c1cccc([C@H](O)CNC(C)(C)C)n1 [Compound 03-150]	> 1000 nM
CCN(CC)c1cccc([C@@H](O)CNC(C)(C)C)n1 [Compound 03-159]	10 to 100 nM

Same assay, conditions: cAMP HTRF; read-out: β1 EC50

SMILES	EC50
CC(C)(C)NC[C@H](O)c1ncccc1C(F)(F)F [Compound 03-1, (S)-2-(tert-butylamino)-1-(3-(trifluoromethyl)pyridin-2-yl)ethan-1-ol]	> 1000 nM
CC(C)(C)NC[C@H](O)c1cc(C(F)(F)F)ccn1 [Compound 03-2]	> 1000 nM

These compounds were tested against β2 adrenergic receptor (Homo sapiens (Human), UniProt P07550) (assay: cAMP Gs dynamic HTRF assay, β2 expressing CHO cells). Details: B2-AR; CHO-K1 (HitHunter); read-out: Average pEC50 [Receptor subtype: B2-AR; Cell type: CHO-K1 (HitHunter)] (converted).
Format: cell-based
Protocol: as §1, §2, §3, §4

β2 adrenergic receptor, sequence (P07550 whole entry, species assumed): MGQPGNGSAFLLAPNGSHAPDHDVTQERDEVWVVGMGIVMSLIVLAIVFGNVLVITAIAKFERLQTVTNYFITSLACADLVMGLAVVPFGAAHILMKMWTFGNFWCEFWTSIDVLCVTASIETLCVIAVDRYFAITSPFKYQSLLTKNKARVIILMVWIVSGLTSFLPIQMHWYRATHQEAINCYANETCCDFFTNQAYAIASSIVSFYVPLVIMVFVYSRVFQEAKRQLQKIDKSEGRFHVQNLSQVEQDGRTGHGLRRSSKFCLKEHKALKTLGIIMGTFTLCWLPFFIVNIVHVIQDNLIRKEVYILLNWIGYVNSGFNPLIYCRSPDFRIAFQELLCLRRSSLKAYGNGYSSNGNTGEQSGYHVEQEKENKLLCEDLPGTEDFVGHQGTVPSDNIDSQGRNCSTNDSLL

SMILES	EC50
CN(C)C(=O)c1cccc([C@@H](O)CNC(C)(C)C)n1 [Compound 03-7]	100 to 1000 nM
CC1(NC[C@@H](O)c2cccc(C(F)(F)F)n2)CCC1 [Compound 03-12]	100 to 1000 nM
CC1(NC[C@@H](O)c2cccc(C(F)(F)F)n2)CC1 [Compound 03-13]	> 1000 nM
COc1ccc(C[C@@H](C)NC[C@@H](O)c2cccc(C(F)(F)F)n2)cc1 [Compound 03-16]	10 to 100 nM
CC(C)(C)NC[C@H](O)c1cccc(C(N)=O)n1 [Compound 03-17]	> 1000 nM
Cc1cc([C@H](O)CNC(C)(C)C)nc(C(F)(F)F)c1 [Compound 03-20]	100 to 1000 nM
O[C@H](CNC1Cc2ccccc2C1)c1cccc(C(F)(F)F)n1 [Compound 03-22]	> 1000 nM
CC1(NC[C@H](O)c2cccc(C(F)(F)F)n2)CCOCC1 [Compound 03-23]	100 to 1000 nM
O[C@@H](CNC1CCOCC1)c1cccc(C(F)(F)F)n1 [Compound 03-25]	> 1000 nM
CC(C)(C)NC[C@H](O)c1cccc(-c2ccccc2)n1 [Compound 03-28]	< 10 nM
CC(C)(C)NC[C@H](O)c1ccc(C#N)c(C(F)(F)F)n1 [Compound 03-30]	10 to 100 nM
CC(C)(C)NC[C@H](O)c1cccc(Br)n1 [Compound 03-32]	10 to 100 nM
O[C@H](CNC1CCC1)c1cccc(C(F)(F)F)n1 [Compound 03-34]	> 1000 nM
CC(C)NC[C@@H](O)c1cccc(C(F)(F)F)n1 [Compound 03-36]	> 1000 nM
CC(C)(C)NC[C@@H](O)c1cccc(C(F)(F)F)n1 [Compound 03-43]	100 to 1000 nM
Cc1cccc([C@H](O)CNC(C)(C)C)n1 [Compound 03-47]	> 1000 nM

Same assay, conditions: B2-AR; CHO-K cells; read-out: Average EC50 [Receptor subtype: B2-AR; Cell type: CHO-K]

SMILES	EC50
CN(C)C(=O)c1cccc([C@@H](O)CNC(C)(C)C)n1 [Compound 03-7]	100 to 1000 nM
CC1(NC[C@@H](O)c2cccc(C(F)(F)F)n2)CCC1 [Compound 03-12]	100 to 1000 nM
CC1(NC[C@@H](O)c2cccc(C(F)(F)F)n2)CC1 [Compound 03-13]	> 1000 nM
COc1ccc(C[C@@H](C)NC[C@@H](O)c2cccc(C(F)(F)F)n2)cc1 [Compound 03-16]	10 to 100 nM
CC(C)(C)NC[C@H](O)c1cccc(C(N)=O)n1 [Compound 03-17]	> 1000 nM
Cc1cc([C@H](O)CNC(C)(C)C)nc(C(F)(F)F)c1 [Compound 03-20]	100 to 1000 nM
O[C@H](CNC1Cc2ccccc2C1)c1cccc(C(F)(F)F)n1 [Compound 03-22]	> 1000 nM
CC1(NC[C@H](O)c2cccc(C(F)(F)F)n2)CCOCC1 [Compound 03-23]	100 to 1000 nM
O[C@@H](CNC1CCOCC1)c1cccc(C(F)(F)F)n1 [Compound 03-25]	> 1000 nM
CC(C)(C)NC[C@H](O)c1cccc(-c2ccccc2)n1 [Compound 03-28]	< 10 nM
CC(C)(C)NC[C@H](O)c1ccc(C#N)c(C(F)(F)F)n1 [Compound 03-30]	10 to 100 nM
CC(C)(C)NC[C@H](O)c1cccc(Br)n1 [Compound 03-32]	10 to 100 nM
O[C@H](CNC1CCC1)c1cccc(C(F)(F)F)n1 [Compound 03-34]	> 1000 nM
CC(C)NC[C@@H](O)c1cccc(C(F)(F)F)n1 [Compound 03-36]	> 1000 nM
CC(C)(C)NC[C@@H](O)c1cccc(C(F)(F)F)n1 [Compound 03-43]	> 1000 nM
Cc1cccc([C@H](O)CNC(C)(C)C)n1 [Compound 03-47]	> 1000 nM

Same assay, conditions: cAMP HTRF; read-out: β2 EC50

SMILES	EC50
CC(C)(C)NC[C@H](O)c1ncccc1C(F)(F)F [Compound 03-1, (S)-2-(tert-butylamino)-1-(3-(trifluoromethyl)pyridin-2-yl)ethan-1-ol]	> 1000 nM
CC(C)(C)NC[C@H](O)c1cc(C(F)(F)F)ccn1 [Compound 03-2]	100 to 1000 nM
